From ChEMBL document CHEMBL5724914, “Linking interpersonal differences in gut microbiota composition and drug biotransformation activity” (2024)

Legend:
[1] = (§1) The drug is tested on Z-020 corresponding to rabbit gut metagenome with ENA study accession number: PRJEB37062 and ENA sample accession number: ERS12561819 for biotransformation under anaerobic condition. The drug concentrations were measured over 9 timepoints collected between 0 and 24 hours of incubation by liquid-chromatography-coupled mass spectrometry (LC–MS); conditions: 2 µM
[2] = human gut metagenome, 24 h, 2 µM
[3] = as §1, with “Z-025” for “Z-020”, “ERS12561824” for “ERS12561819”; conditions: 2 µM
[4] = as §1, with “WLS-350” for “Z-020”, “human” for “rabbit”, “ERS12561789” for “ERS12561819”; conditions: 2 µM
[5] = human gut metagenome, 24 h, 2 µM; remark: listed apart in the source
[6] = as §1, with “WLS-006” for “Z-020”, “human” for “rabbit”, “ERS12561741” for “ERS12561819”; conditions: 2 µM
[7] = human gut metagenome, 24 h, 2 µM; remark: listed apart in the source
[8] = as §1, with “Z-004” for “Z-020”, “to” for “to rabbit gut”, “ERS12561804” for “ERS12561819”; conditions: 2 µM
[9] = human gut metagenome, 24 h, 2 µM; remark: listed apart in the source
[10] = as §1, with “WLS-082” for “Z-020”, “human” for “rabbit”, “ERS12561751” for “ERS12561819”; conditions: 2 µM
[11] = as §1, with “WLS-073” for “Z-020”, “human” for “rabbit”, “ERS12561749” for “ERS12561819”; conditions: 2 µM
[12] = human gut metagenome, 24 h, 2 µM; remark: listed apart in the source
[13] = human gut metagenome, 24 h, 2 µM; remark: listed apart in the source
[14] = human gut metagenome, 24 h, 2 µM; remark: listed apart in the source
[15] = human gut metagenome, 24 h, 2 µM; remark: listed apart in the source
[16] = as §1, with “Z-030” for “Z-020”, “mouse” for “rabbit”, “ERS12561829” for “ERS12561819”; conditions: 2 µM
[17] = human gut metagenome, 24 h, 2 µM; remark: listed apart in the source
[18] = human gut metagenome, 24 h, 2 µM; remark: listed apart in the source
[19] = as §1, with “Z-005” for “Z-020”, “to” for “to rabbit gut”, “ERS12561805” for “ERS12561819”; conditions: 2 µM
[20] = human gut metagenome, 24 h, 2 µM; remark: listed apart in the source
Note: call rule not given here.

O=C(Nc1ccccc1)OCC(CN1CCCCC1)OC(=O)Nc1ccccc1 (stereo not given) [DIPERODON]
Bacterial Biotransformation [1]: Compound NOT metabolized | Bacterial Biotransformation [2]: Compound NOT metabolized | Bacterial Biotransformation [3]: Compound metabolized | Bacterial Biotransformation [4]: Compound metabolized | Bacterial Biotransformation [5]: Compound metabolized | Bacterial Biotransformation [6]: Compound NOT metabolized | Bacterial Biotransformation [7]: Compound NOT metabolized | Bacterial Biotransformation [8]: Compound metabolized | Bacterial Biotransformation [9]: Compound metabolized | Bacterial Biotransformation [10]: Compound metabolized | Bacterial Biotransformation [11]: Compound NOT metabolized | Bacterial Biotransformation [12]: Compound metabolized | Bacterial Biotransformation [13]: Compound NOT metabolized | Bacterial Biotransformation [14]: Compound metabolized | Bacterial Biotransformation [15]: Compound metabolized | Bacterial Biotransformation [16]: Compound NOT metabolized | Bacterial Biotransformation [17]: Compound NOT metabolized | Bacterial Biotransformation [18]: Compound NOT metabolized | Bacterial Biotransformation [19]: Compound NOT metabolized | Bacterial Biotransformation [20]: Compound NOT metabolized

CC(C)N(CCC(C(N)=O)(c1ccccc1)c1ccccn1)C(C)C.O=P(O)(O)O (stereo not given) [DISOPYRAMIDE PHOSPHATE]
Bacterial Biotransformation [1]: Compound NOT metabolized | Bacterial Biotransformation [2]: Compound NOT metabolized | Bacterial Biotransformation [3]: Compound NOT metabolized | Bacterial Biotransformation [4]: Compound NOT metabolized | Bacterial Biotransformation [5]: Compound NOT metabolized | Bacterial Biotransformation [6]: Compound metabolized | Bacterial Biotransformation [7]: Compound NOT metabolized | Bacterial Biotransformation [8]: Compound NOT metabolized | Bacterial Biotransformation [9]: Compound NOT metabolized | Bacterial Biotransformation [10]: Compound NOT metabolized | Bacterial Biotransformation [11]: Compound NOT metabolized | Bacterial Biotransformation [12]: Compound NOT metabolized | Bacterial Biotransformation [13]: Compound NOT metabolized | Bacterial Biotransformation [14]: Compound metabolized | Bacterial Biotransformation [15]: Compound NOT metabolized | Bacterial Biotransformation [16]: Compound NOT metabolized | Bacterial Biotransformation [17]: Compound NOT metabolized | Bacterial Biotransformation [18]: Compound NOT metabolized | Bacterial Biotransformation [19]: Compound NOT metabolized | Bacterial Biotransformation [20]: Compound NOT metabolized

C[C@@H](CO)NC(=O)[C@@H]1C=C2c3cccc4[nH]cc(c34)C[C@H]2N(C)C1.O=C(O)/C=C\C(=O)O [ERGONOVINE MALEATE]
Bacterial Biotransformation [1]: Compound NOT metabolized | Bacterial Biotransformation [2]: Compound metabolized | Bacterial Biotransformation [3]: Compound NOT metabolized | Bacterial Biotransformation [4]: Compound metabolized | Bacterial Biotransformation [5]: Compound metabolized | Bacterial Biotransformation [6]: Compound metabolized | Bacterial Biotransformation [7]: Compound NOT metabolized | Bacterial Biotransformation [8]: Compound NOT metabolized | Bacterial Biotransformation [9]: Compound NOT metabolized | Bacterial Biotransformation [10]: Compound metabolized | Bacterial Biotransformation [11]: Compound metabolized | Bacterial Biotransformation [12]: Compound NOT metabolized | Bacterial Biotransformation [13]: Compound metabolized | Bacterial Biotransformation [14]: Compound metabolized | Bacterial Biotransformation [15]: Compound metabolized | Bacterial Biotransformation [16]: Compound NOT metabolized | Bacterial Biotransformation [17]: Compound metabolized | Bacterial Biotransformation [18]: Compound metabolized | Bacterial Biotransformation [19]: Compound NOT metabolized | Bacterial Biotransformation [20]: Compound NOT metabolized

CCN(CC)C(C)CN1c2ccccc2Sc2ccccc21 (stereo not given) [ETHOPROPAZINE]
Bacterial Biotransformation [1]: Compound NOT metabolized | Bacterial Biotransformation [2]: Compound metabolized | Bacterial Biotransformation [3]: Compound NOT metabolized | Bacterial Biotransformation [4]: Compound metabolized | Bacterial Biotransformation [5]: Compound metabolized | Bacterial Biotransformation [6]: Compound metabolized | Bacterial Biotransformation [7]: Compound NOT metabolized | Bacterial Biotransformation [8]: Compound metabolized | Bacterial Biotransformation [9]: Compound metabolized | Bacterial Biotransformation [10]: Compound metabolized | Bacterial Biotransformation [11]: Compound metabolized | Bacterial Biotransformation [12]: Compound metabolized | Bacterial Biotransformation [13]: Compound metabolized | Bacterial Biotransformation [14]: Compound metabolized | Bacterial Biotransformation [15]: Compound metabolized | Bacterial Biotransformation [16]: Compound NOT metabolized | Bacterial Biotransformation [17]: Compound metabolized | Bacterial Biotransformation [18]: Compound metabolized | Bacterial Biotransformation [19]: Compound metabolized | Bacterial Biotransformation [20]: Compound metabolized
